The subject of the assay is HCT-15. Kind of assay: HCT-15 data of payloads and linker-payloads (EC50, with or without verapamil). The format is cell-based. As to conditions: Homo sapiens; linker-payload, HCT-15 cells; read-out: HCT-15 EC50.

Structures are written as SMILES. Where a SMILES comes first, the peptide text is derived from it. The star is where a group is joined. Exatecan = CC[C@@]1(O)C(=O)OCc2c1cc1n(c2=O)Cc2c-1nc1cc(F)c(C)c3c1c2[C@@H](N*)CC3; Acetyl(cyclooct-2-yn-1-ylO) = O=C(COC1C#CCCCCC1)* Where only a bound is given, the exact number is not on record here.

As a reminder, the EC50 is the concentration that produces a half-maximal response. As for `CC[C@@]1(O)C(=O)OCc2c1cc1n(c2=O)Cc2c-1nc1cc(F)c(C)c3c1c2[C@@H](NC(=O)OCc1ccc(NC(=O)[C@H](CCCNC(N)=O)NC(=O)[C@@H](NC(=O)CCOCCOCCOCCOCCNC(=O)COC2C#CCCCCC2)C(C)C)cc1)CC3` (stereo partly drawn) [LP1, {4-[(2S)-5-(Carbamoylamino)-2-[(2S)-2-{1-[2-(cyclooct-2-yn-1-yloxy)acetamido]-3,6,9,12-tetraoxapentadecan-15-amido}-3-methylbutanamido]pentanamido]phenyl}methyl N-[(10S,23S)-10-ethyl-18-fluoro-10-hydroxy-19-methyl-5,9-dioxo-8-oxa-4,15-diazahexacyclo[14.7.1.0^2,^14.0^4,^13.0^6,^11.0^20,^24]tetracosa-1,6(11),12,14,16,18,20(24)-heptaen-23-yl]carbamate], the EC50 was determined as 289 nM.

`CC[C@@]1(O)C(=O)OCc2c1cc1n(c2=O)Cc2c-1nc1cc(F)c(C)c3c1c2[C@@H](NC(=O)OCc1ccc(NC(=O)[C@H](CCCNC(N)=O)NC(=O)[C@@H](NC(=O)CCOCCOCCOCCOCCNC(=O)CCC(=O)N2Cc4ccccc4C#Cc4ccccc42)C(C)C)cc1)CC3` [LP2]: the EC50 stood at 145 nM.

For `CC[C@@]1(O)C(=O)OCc2c1cc1n(c2=O)Cc2c-1nc1cc(F)c(C)c3c1c2[C@@H](NC(=O)OCc1ccc(O[C@@H]2O[C@H](C(=O)O)[C@@H](O)[C@H](O)[C@H]2O)c(C(=O)NCCNC(=O)COC2C#CCCCCC2)c1)CC3` (stereo partly drawn) [LP3, (2S,3S,4S,5R,6S)-6-[2-({2-[2-(Cyclooct-2-yn-1-yloxy)acetamido]ethyl}carbamoyl)-4-[({[(10S,23S)-10-ethyl-18-fluoro-10-hydroxy-19-methyl-5,9-dioxo-8-oxa-4,15-diazahexacyclo[14.7.1.0^2,^14.0^4,^13.0^6,^11.0^20,^24]tetracosa-1,6(11),12,14,16,18,20(24)-heptaen-23-yl]carbamoyl}oxy)methyl]phenoxy]-3,4,5-trihydroxyoxane-2-carboxylic acid], the EC50 amounted to 457 nM.

Regarding `CC[C@@]1(O)C(=O)OCc2c1cc1n(c2=O)Cc2c-1nc1cc(F)c(C)c3c1c2[C@@H](NC(=O)OCc1ccc(O[C@@H]2O[C@H](CO)[C@@H](O)[C@H](O)[C@H]2O)c(C(=O)NCCNC(=O)COC2C#CCCCCC2)c1)CC3` (stereo partly drawn) [LP4, [3-({2-[2-(Cyclooct-2-yn-1-yloxy)acetamido]ethyl}carbamoyl)-4-{[(2S,3R,4S,5S,6R)-3,4,5-trihydroxy-6-(hydroxymethyl)oxan-2-yl]oxy}phenyl]methyl N-[(10S,23S)-10-ethyl-18-fluoro-10-hydroxy-19-methyl-5,9-dioxo-8-oxa-4,15-diazahexacyclo[14.7.1.0^2,^14.0^4,^13.0^6,^11.0^20,^24]tetracosa-1,6(11),12,14,16,18,20(24)-heptaen-23-yl]carbamate], the EC50 was 363 nM.

For `CC[C@@]1(O)C(=O)OCc2c1cc1n(c2=O)Cc2c-1nc1cc(F)c(C)c3c1c2[C@@H](NC(=O)CNC(=O)OCc1ccc(NC(=O)[C@H](CCCNC(N)=O)NC(=O)[C@@H](NC(=O)CCOCCOCCOCCOCCNC(=O)COC2C#CCCCCC2)C(C)C)cc1)CC3` (stereo partly drawn) [LP5, {4-[(2S)-5-(Carbamoylamino)-2-[(2S)-2-{1-[2-(cyclooct-2-yn-1-yloxy)acetamido]-3,6,9,12-tetraoxapentadecan-15-amido}-3-methylbutanamido]pentanamido]phenyl}methyl N-({[(10S,23S)-10-ethyl-18-fluoro-10-hydroxy-19-methyl-5,9-dioxo-8-oxa-4,15-diazahexacyclo[14.7.1.0^2,^14.0^4,^13.0^6,^11.0^20,^24]tetracosa-1,6(11),12,14,16,18,20(24)-heptaen-23-yl]carbamoyl}methyl)carbamate], the EC50 was greater than 1000 nM.

Turning to `CC[C@@]1(O)C(=O)OCc2c1cc1n(c2=O)Cc2c-1nc1cc(F)c(C)c3c1c2[C@@H](NC(=O)CNC(=O)CNC(=O)CNC(=O)CNC(=O)COC1C#CCCCCC1)CC3` (stereo partly drawn) [LP8, 2-(2-{2-[2-(Cyclooct-2-yn-1-yloxy)acetamido]acetamido}acetamido)-N-({[(10S,23S)-10-ethyl-18-fluoro-10-hydroxy-19-methyl-5,9-dioxo-8-oxa-4,15-diazahexacyclo[14.7.1.0^2,^14.0^4,^13.0^6,^11.0^20,^24]tetracosa-1,6(11),12,14,16,18,20(24)-heptaen-23-yl]carbamoyl}methyl)acetamide] ({Acetyl(cyclooct-2-yn-1-ylO)}-GGGG-Exatecan), the EC50 was 837 nM.

In the case of `CC[C@@]1(O)C(=O)OCc2c1cc1n(c2=O)Cc2c-1nc1cc(F)c(C)c3c1c2[C@@H](NC(=O)[C@H](CCC(=O)O)NC(=O)OCc1ccc(NC(=O)[C@H](CCCNC(N)=O)NC(=O)[C@@H](NC(=O)CCOCCOCCOCCOCCNC(=O)COC2C#CCCCCC2)C(C)C)cc1)CC3` (stereo partly drawn) [LP9, (4S)-4-{[({4-[(2S)-5-(carbamoylamino)-2-[(2S)-2-{1-[2-(cyclooct-2-yn-1-yloxy)acetamido]-3,6,9,12-tetraoxapentadecan-15-amido}-3-methylbutanamido]pentanamido]phenyl}methoxy)carbonyl]amino}-4-{[(10S,23S)-10-ethyl-18-fluoro-10-hydroxy-19-methyl-5,9-dioxo-8-oxa-4,15-diazahexacyclo[14.7.1.0^2,^14.0^4,^13.0^6,^11.0^20,^24]tetracosa-1,6(11),12,14,16,18,20(24)-heptaen-23-yl]carbamoyl}butanoic acid], the concentration for a half-maximal effect (EC50) stood at 722 nM.

As to `CC[C@@]1(O)C(=O)OCc2c1cc1n(c2=O)Cc2c-1nc1cc(F)c(C)c3c1c2[C@@H](NC(=O)[C@H](Cc1ccccc1)NC(=O)OCc1ccc(NC(=O)[C@H](CCCNC(N)=O)NC(=O)[C@@H](NC(=O)CCOCCOCCOCCOCCNC(=O)COC2C#CCCCCC2)C(C)C)cc1)CC3` (stereo partly drawn) [LP10, {4-[(2S)-5-(carbamoylamino)-2-[(2S)-2-{1-[2-(cyclooct-2-yn-1-yloxy)acetamido]-3,6,9,12-tetraoxapentadecan-15-amido}-3-methylbutanamido]pentanamido]phenyl}methyl N-[(1 S)-1-{[(10S,23S)-10-ethyl-18-fluoro-10-hydroxy-19-methyl-5,9-dioxo-8-oxa-4,15-diazahexacyclo[14.7.1.0^2,^14.0^4,^13.0^6,^11.0^20,^24]tetracosa-1,6(11),12,14,16,18,20(24)-heptaen-23-yl]carbamoyl}-2-phenylethyl]carbamate], the EC50 was 852 nM.

Consider `CC[C@@]1(O)C(=O)OCc2c1cc1n(c2=O)Cc2c-1nc1cc(F)c(C)c3c1c2[C@@H](NC(=O)[C@@H](N)CCCCNC(=O)OCc1ccc(NC(=O)[C@H](CCCNC(N)=O)NC(=O)[C@@H](NC(=O)CCOCCOCCOCCOCCNC(=O)COC2C#CCCCCC2)C(C)C)cc1)CC3` (stereo partly drawn) [LP11, {4-[(2S)-5-(carbamoylamino)-2-[(2S)-2-{1-[2-(cyclooct-2-yn-1-yloxy)acetamido]-3,6,9,12-tetraoxapentadecan-15-amido}-3-methylbutanamido]pentanamido]phenyl}methyl N-[(5S)-5-amino-5-{[(10S,23S)-10-ethyl-18-fluoro-10-hydroxy-19-methyl-5,9-dioxo-8-oxa-4,15-diazahexacyclo[14.7.1.0^2,^14.0^4,^13.0^6,^11.0^20,^24]tetracosa-1,6(11),12,14,16,18,20(24)-heptaen-23-yl]carbamoyl}pentyl]carbamate], for which the EC50 came to 208 nM.

The record behind these values is US20230287138A1, “PROTEIN-DRUG CONJUGATES COMPRISING CAMPTOTHECIN ANALOGS AND METHODS OF USE THEREOF” (Regneron Pharmaceuticals, Inc., priority 2022, published 2023).
